The text below walks through data of paper PMC3924858 (Journal of medicinal chemistry, 2013).

The target in the experiment is human mGlu5 receptor (Homo sapiens, UniProt P41594).
Chain of human mGlu5 receptor (P41594 21-1180 isoform P41594-2 limits assumed): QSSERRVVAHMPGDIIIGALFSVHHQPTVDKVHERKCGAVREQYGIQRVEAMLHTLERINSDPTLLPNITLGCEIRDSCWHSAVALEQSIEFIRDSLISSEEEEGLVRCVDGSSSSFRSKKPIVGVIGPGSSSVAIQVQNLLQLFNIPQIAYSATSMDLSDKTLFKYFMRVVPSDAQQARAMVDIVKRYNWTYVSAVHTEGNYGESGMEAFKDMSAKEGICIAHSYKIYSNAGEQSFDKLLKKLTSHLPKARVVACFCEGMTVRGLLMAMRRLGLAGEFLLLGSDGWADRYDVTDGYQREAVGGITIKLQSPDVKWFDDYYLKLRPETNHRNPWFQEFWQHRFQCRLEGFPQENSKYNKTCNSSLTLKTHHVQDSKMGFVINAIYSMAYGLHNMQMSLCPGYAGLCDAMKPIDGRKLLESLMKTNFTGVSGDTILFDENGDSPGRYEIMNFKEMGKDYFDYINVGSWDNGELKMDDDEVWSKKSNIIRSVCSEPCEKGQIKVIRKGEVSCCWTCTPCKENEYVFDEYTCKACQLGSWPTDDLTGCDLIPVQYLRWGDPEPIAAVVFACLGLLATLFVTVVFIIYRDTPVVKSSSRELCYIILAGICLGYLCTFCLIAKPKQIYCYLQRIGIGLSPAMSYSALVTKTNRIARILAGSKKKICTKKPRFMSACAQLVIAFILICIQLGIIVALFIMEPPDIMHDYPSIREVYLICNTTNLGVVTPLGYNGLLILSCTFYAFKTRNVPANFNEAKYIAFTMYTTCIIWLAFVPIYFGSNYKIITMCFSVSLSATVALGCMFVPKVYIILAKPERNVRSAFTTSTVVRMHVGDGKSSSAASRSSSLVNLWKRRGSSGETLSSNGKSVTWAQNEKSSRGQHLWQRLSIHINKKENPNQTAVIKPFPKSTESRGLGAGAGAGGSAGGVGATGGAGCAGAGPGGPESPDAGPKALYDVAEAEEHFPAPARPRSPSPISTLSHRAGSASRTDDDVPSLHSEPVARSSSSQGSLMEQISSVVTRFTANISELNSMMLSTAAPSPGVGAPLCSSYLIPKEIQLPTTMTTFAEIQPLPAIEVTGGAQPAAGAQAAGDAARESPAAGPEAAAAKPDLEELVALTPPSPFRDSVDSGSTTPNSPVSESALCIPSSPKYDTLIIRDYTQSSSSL

Regarding `O=C1c2sc(COc3ccccc3)nc2CCN1c1ccc(F)cn1` [16p, 5-(5-Fluoro-pyridin-2-yl)-2-phenoxymethyl-6,7-dihydro-5H-thiazolo[5,4-c]pyridin-4-one], the “Glu Max” value is given as 94 (89-99) %.
